Experimental data published in the supplement of paper PMC11061612.

What was measured:
[1] = system: LNCaP-Clone-FGC (Prostate Carcinoma); assay: combination Emax (second highest fraction inhibited in the dose matrix, 72 h); higher = more inhibition; extreme values may be limits of the assay
Outline: (§1)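 After 24 hours at 37°C and 5% CO2 in 1536-well plates, cells in DMEM/F12 or RPMI plus 10% FBS received two-drug dose matrices for 72 hours. Viability came from CellTiter-Glo 2.0 luminescence and was scaled as inhibition, anchored at 0 by vehicle wells and at 1 by blank wells. Combination Emax is taken as the second-highest inhibition in the matrix, and Bliss excess as the observed combination effect less EA + EB − EA·EB, with EA and EB the single-agent effects.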

[2] = system: HO-1-N-1 (Oral Cavity Carcinoma); assay: as above
Outline: as §1

[3] = system: MDA-MB-361 (Breast Carcinoma); assay: as above
Outline: as §1

[4] = system: HCC-78 (Lung Adenocarcinoma); assay: as above
Outline: as §1

[5] = system: HuP-T4 (Pancreatic Carcinoma); assay: as above
Outline: as §1

[6] = system: Calu-3 (Lung Adenocarcinoma); assay: as above
Outline: as §1

[7] = system: TE-9 (Esophageal Squamous Cell Carcinoma); assay: as above
Outline: as §1

AGS (Gastric Carcinoma) = assay: as above
Outline: as §1

[8] = system: Ramos-2G6-4C10 (Burkitt's Lymphoma); assay: as above
Outline: as §1

[9] = system: CAL-148 (Breast Carcinoma); assay: as above
Outline: as §1

[10] = system: Daoy (Other Solid Carcinomas); assay: as above
Outline: as §1

42-MG-BA (Glioblastoma) = assay: as above
Outline: as §1

[11] = system: NCI-H2085 (Non-Small Cell Lung Carcinoma); assay: as above
Outline: as §1

[12] = system: DoTc2-4510 (Cervical Carcinoma); assay: as above
Outline: as §1

[13] = system: LNCaP-Clone-FGC (Prostate Carcinoma); assay: Bliss excess, mean over the matrix (fraction); higher = more synergy
Outline: as §1

[14] = system: LS-180 (Colorectal Carcinoma); assay: as above
Outline: as §1

KELLY (Neuroblastoma) = assay: as above
Outline: as §1

[15] = system: ME-1 (Acute Myeloid Leukemia); assay: as above
Outline: as §1

[16] = system: Ramos-2G6-4C10 (Burkitt's Lymphoma); assay: as above
Outline: as §1

[17] = system: RC-K8 (B-Cell Non-Hodgkin's Lymphoma); assay: as above
Outline: as §1
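Throughout, for Bliss excess, mean over the matrix: after 72 h of two-drug dosing.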

Structure (SMILES)	combination Emax [1]	combination Emax [2]	combination Emax [3]	combination Emax [4]	combination Emax [5]	combination Emax [6]	combination Emax [7]	combination Emax (AGS (Gastric Carcinoma))	combination Emax [8]	combination Emax [9]	combination Emax [10]	combination Emax (42-MG-BA (Glioblastoma))	combination Emax [11]	combination Emax [12]	Bliss excess [13]	Bliss excess [14]	Bliss excess (KELLY (Neuroblastoma))	Bliss excess [15]	Bliss excess [16]	Bliss excess [17]
Cc1c2c(nn1C)CSCc1cc(n(C)n1)CSc1cc(c3ccccc3c1)OCCCc1c(C(=O)O)n(C)c3c-2c(Cl)ccc13 [AZD5991] + CN(C)CCCOc1ccc(-c2ccc3ncc4c(c3c2)n(C2CCOCC2)c(=O)n4C)cn1 [AZD0156] (first compound max 1 µM, 7x7, partner max 1 µM)	0.429	0.771	0.791	0.211	0.779	0.15	0.188	0.255	0.988	0.417	0.223	0.986	0.219	0.326	-0.0275	0.0054	-0.0469	0.0237	0.0226	0.0237
Cc1c2c(nn1C)CSCc1cc(n(C)n1)CSc1cc(c3ccccc3c1)OCCCc1c(C(=O)O)n(C)c3c-2c(Cl)ccc13 [AZD5991] + C[C@@H]1COCCN1C2=NC(=NC(=C2)C3(CC3)[S@](=N)(=O)C)C4=C5C=CNC5=NC=C4 [AZD6738] (first compound max 1 µM, 7x7, partner max 10 µM)	0.688	0.928	0.962	0.544	0.51	0.275	0.366	0.821	1	0.942	0.945	1	0.52	0.677	0.0123	0.0196	0.0647	0.0454	0.0097	0.0114
Cc1c2c(nn1C)CSCc1cc(n(C)n1)CSc1cc(c3ccccc3c1)OCCCc1c(C(=O)O)n(C)c3c-2c(Cl)ccc13 [AZD5991] + C[C@@H](Nc1cc(F)cc(F)c1)c1cc(C(=O)N(C)C)cc2c(=O)cc(N3CCOCC3)oc12 [AZD8186] (first compound max 1 µM, 7x7, partner max 3 µM)	0.894	0.933	0.806	0.413	0.442	0.175	0.135	0.246	0.959	0.335	0.391	0.963	0.691	0.384	-0.0234	-0.0189	0.0259	-0.037	-0.0074	-0.0418
Cc1c2c(nn1C)CSCc1cc(n(C)n1)CSc1cc(c3ccccc3c1)OCCCc1c(C(=O)O)n(C)c3c-2c(Cl)ccc13 [AZD5991] + Cc1cc2ncnn2cc1Nc1ncc2c(n1)n(C1CCOCC1)c(=O)n2C [AZD7648] (first compound max 1 µM, 7x7, partner max 10 µM)	0.42	0.794	0.816	0.339	0.325	0.201	0.214	0.233	1	0.45	0.244	0.988	0.244	0.244	-0.0423	-0.0213	-0.0368	0.013	0.0227	0.0148
Cc1c2c(nn1C)CSCc1cc(n(C)n1)CSc1cc(c3ccccc3c1)OCCCc1c(C(=O)O)n(C)c3c-2c(Cl)ccc13 [AZD5991] + Cn1cnc2c(F)c(Nc3ccc(Br)cc3Cl)c(C(=O)NOCCO)cc21 [Selumetinib] (first compound max 1 µM, 7x7, partner max 3 µM)	0.129	0.919	0.816	0.253	0.957	0.121	0.162	0.964	0.998	0.329	0.278	0.988	0.631	0.432	-0.0301	0.0454	0.0281	0.162	-0.0074	0.0127
NC1(C(=O)N[C@@H](CCO)c2ccc(Cl)cc2)CCN(c2ncnc3[nH]ccc23)CC1 [Capivasertib] + CC(=O)c1c(C)c2cnc(Nc3ccc(N4CCNCC4)cn3)nc2n(C2CCCC2)c1=O [Palbociclib] (first compound max 10 µM, 7x7, partner max 10 µM)	0.945	0.635	0.546	0.344	0.305	0.396	0.227	0.697	0.42	0.964	0.397	0.639	0.295	0.181	0.0242	0.0189	0.151	-0.11	-0.0512	-0.0014
NC1(C(=O)N[C@@H](CCO)c2ccc(Cl)cc2)CCN(c2ncnc3[nH]ccc23)CC1 [Capivasertib] + CC(C)n1c(=O)n(C)c2cnc3cc(F)c(-c4ccc(OCCCN5CCCCC5)nc4)cc3c21 [AZD1390] (first compound max 10 µM, 7x7, partner max 0.3 µM)	0.956	0.435	0.44	0.259	0.128	0.288	0.17	0.444	0.447	0.971	0.33	0.686	0.258	0.234	-0.0681	-0.0332	-0.0322	-0.0319	-0.0205	-0.0149
